Where a SMILES comes first, the peptide text is derived from it.
Tests used:
[1] = test system: Growth Hormone secretion; assay: Growth Hormone secretion in female rats after subcutaneous GRF analog; assay type: in vivo; conditions: female Sprague-Dawley rats; 10 μg/rat subcutaneous; plasma 0-60 minutes
Description: Sprague-Dawley rats (female, weighting from 250 to 300 g) were obtained from Charles River Inc. Animals were used according to a protocol of the Animal Care Committee along with the principles of the Guide for the Care and Use of Experimental Animals of the Canadian Council on Animal Care. The animals were maintained on standard laboratory chow under a 12:12 light:dark cycle. They were kept in groups of 4 rats per cage.
The animals were anesthetized with isoflurane 2.5%. A mid-section opening was made in the neck to expose the carotid artery. The carotid artery was canulated with polypropylene tubing (PE-50) to allow blood withdrawal. After surgical preparation, rats received a subcutaneous injection of GRF analog (10 μg/rat dissolved in 20 mM AcONa+5% mannitol at pH 5). For pharmacodynamics studies, blood samples (400 μL) were collected from 4 to 8 animals per group per time point. Blood samples (400 μl) were collected via the carotid catheter at 0, 10, 20, 30, 45 and 60 minutes after drug injection. Blood was placed into microtainer pre-treated with K3EDTA and immediately centrifuged at 13,000 RPM in a desktop centrifuge for 2 minutes. The plasma was collected and placed into a screw cap Eppendorf™ and quick frozen in liquid nitrogen. The samples were then kept at −80° C. until assayed. Determination of GH levels was performed as described below.
(§1) Rat and mouse plasma samples were vortexed carefully and centrifuged at 9,000 RPM for 2 min at 4° C. The dosage of GH levels was performed using the Rat/Mouse Growth Hormone ELISA kit from Millipore (Cat. # EZRMGH-45K). Sample supernatants were first diluted 20-fold with the GH ELISA assay buffer, and 10 μl of this dilution was added to the ELISA plate with 90 μl of GH EIA assay buffer. The remaining of the procedure was performed according to the manufacturer's instructions, and the data obtained were analyzed using GraphPad Prism™ software.
(§2) The GRF analogs described herein were tested for their ability to induce GH release in female mice and rats. […] The data are presented in Tables III (mice) and IV-V (rats).

[2] = test system: Growth Hormone secretion; assay: Growth Hormone secretion in female mice after subcutaneous GRF analog; assay type: in vivo; conditions: female CD-1 mice; 10 μg/mouse subcutaneous; plasma 10 minutes after injection
Description: CD-1 mice (female, weighting from 20 to 25 g) were obtained from Charles River Inc. Animals were used according to a protocol of the Animal Care Committee along with the principles of the Guide for the Care and Use of Experimental Animals of the Canadian Council on Animal Care. The animals were maintained on standard laboratory chow under a 12:12 light:dark cycle. They were kept in groups of 4 mice per cage.
At the day of the experiment, mice received a subcutaneous injection of GRF analog (10 μg/mouse dissolved in 20 mM sodium acetate (AcONa)+5% mannitol at pH 5). 10 minutes after injection, the mice were anesthezied with isolufrane. Blood samples (500 μl) were obtained by intra-cardiac puncture. Blood was placed into microtainer pre-treated with K3EDTA and immediately centrifuged at 13,000 RPM in a desktop centrifuge for 2 minutes. The plasma was collected and placed into a screwcap Eppendorf™ tube and quick frozen in liquid nitrogen. The samples were then kept at −80° C. until assayed. Determination of GH levels was performed as described below.
as §1, §2

SMILES	Mean AUC (GH Area Under the curve, GH concentration over time) [1]	Mean Cmax (ng/ml) of Growth Hormone secretion [1]	GH levels 10 min [2]
CC/C=C/CC(=O)N[C@@H](Cc1ccc(O)cc1)C(=O)N[C@@H](C)C(=O)N[C@@H](CC(=O)O)C(=O)N[C@@H](C)C(=O)N[C@H](C(=O)N[C@@H](Cc1ccccc1)C(=O)N[C@H](C(=O)N[C@@H](CC(=O)O)C(=O)N[C@@H](CO)C(=O)N[C@@H](Cc1ccc(O)cc1)C(=O)N[C@@H](CCCNC(=N)N)C(=O)N[C@@H](CCCCN)C(=O)N[C@H](C(=O)N[C@@H](CC(C)C)C(=O)N[C@@H](C)C(=O)N[C@@H](CCC(N)=O)C(=O)N[C@@H](CC(C)C)C(=O)N[C@@H](CCCCN)C(=O)N[C@@H](C)C(=O)N[C@@H](CCCNC(=N)N)C(=O)N[C@@H](CCC(N)=O)C(=O)N[C@@H](CC(=O)O)C(=O)N[C@H](C(=O)N[C@@H](CC(C)C)C(=O)N[C@@H](C)C(=O)N[C@@H](CCCNC(=N)N)C(=O)N[C@@H](C)C(=O)N[C@@H](C)C(=O)N[C@@H](CCCNC(=N)N)C(N)=O)[C@@H](C)CC)C(C)C)[C@@H](C)O)[C@@H](C)CC [SEQ ID NO: 26, Trans-3-hexenoyl-YADAIFTDSYRKVLAQLKARQDILARAAR-NH2] (HELM PEPTIDE1{[CC/C=C/CC(=O)[*:2]].Y.A.D.A.I.F.T.D.S.Y.R.K.V.L.A.Q.L.K.A.R.Q.D.I.L.A.R.A.A.R.[am]}$$$$V2.0)	8880	468.1 ng/mL	484.6 ng/mL
CC/C=C/CC(=O)N[C@@H](Cc1ccc(O)cc1)C(=O)N[C@@H](C)C(=O)N[C@@H](CC(=O)O)C(=O)N[C@@H](C)C(=O)N[C@H](C(=O)N[C@@H](Cc1ccccc1)C(=O)N[C@H](C(=O)N[C@@H](CC(=O)O)C(=O)N[C@@H](CO)C(=O)N[C@@H](Cc1ccc(O)cc1)C(=O)N[C@@H](CCCNC(=N)N)C(=O)N[C@@H](CCCCN)C(=O)N[C@H](C(=O)N[C@@H](CC(C)C)C(=O)N[C@@H](C)C(=O)N[C@@H](CCC(N)=O)C(=O)N[C@@H](CC(C)C)C(=O)N[C@@H](CO)C(=O)N[C@@H](C)C(=O)N[C@@H](CCCNC(=N)N)C(=O)N[C@@H](CCC(N)=O)C(=O)N[C@@H](CC(=O)O)C(=O)N[C@H](C(=O)N[C@@H](CC(C)C)C(=O)N[C@@H](C)C(=O)N[C@@H](CCCNC(=N)N)C(=O)N[C@@H](C)C(=O)N[C@@H](C)C(=O)N[C@@H](CCCNC(=N)N)C(=O)N[C@@H](C)C(=O)N[C@@H](C)C(=O)N[C@@H](CCCNC(=N)N)C(N)=O)[C@@H](C)CC)C(C)C)[C@@H](C)O)[C@@H](C)CC [SEQ ID NO: 27, Trans-3-hexenoyl-YADAIFTDSYRKVLAQLSARQDILARAARAAR-NH2] (HELM PEPTIDE1{[CC/C=C/CC(=O)[*:2]].Y.A.D.A.I.F.T.D.S.Y.R.K.V.L.A.Q.L.S.A.R.Q.D.I.L.A.R.A.A.R.A.A.R.[am]}$$$$V2.0)	8350	455.6 ng/mL	323.6 ng/mL
CC[C@H](C)[C@H](NC(=O)[C@H](C)NC(=O)[C@H](CC(=O)O)NC(=O)[C@@H](C)NC(=O)[C@@H](N)Cc1ccc(O)cc1)C(=O)N[C@@H](Cc1ccccc1)C(=O)N[C@H](C(=O)N[C@@H](CC(=O)O)C(=O)N[C@@H](CO)C(=O)N[C@@H](Cc1ccc(O)cc1)C(=O)N[C@@H](CCCNC(=N)N)C(=O)N[C@@H](CCCCN)C(=O)N[C@H](C(=O)N[C@@H](CC(C)C)C(=O)N[C@@H](C)C(=O)N[C@@H](CCC(N)=O)C(=O)N[C@@H](CC(C)C)C(=O)N[C@@H](CCCCN)C(=O)N[C@@H](CC(C)C)C(=O)N[C@@H](CCCNC(=N)N)C(=O)N[C@@H](CCC(N)=O)C(=O)N[C@@H](CC(=O)O)C(=O)N[C@H](C(=O)N[C@@H](CC(C)C)C(=O)N[C@@H](C)C(=O)N[C@@H](CCCNC(=N)N)C(=O)N[C@@H](C)C(=O)N[C@@H](C)C(=O)N[C@@H](CCCNC(=N)N)C(=O)N[C@@H](C)C(=O)N[C@@H](C)C(=O)N[C@@H](CCCNC(=N)N)C(N)=O)[C@@H](C)CC)C(C)C)[C@@H](C)O [SEQ ID NO: 29, Y-a-DAIFTDSYRKVLAQLKLRQDILARAARAAR-NH2] (HELM PEPTIDE1{Y.[dA].D.A.I.F.T.D.S.Y.R.K.V.L.A.Q.L.K.L.R.Q.D.I.L.A.R.A.A.R.A.A.R.[am]}$$$$V2.0)	9442	466.7 ng/mL	457.7 ng/mL
CC[C@H](C)[C@H](NC(=O)[C@H](C)NC(=O)[C@H](CC(=O)O)NC(=O)[C@@H](C)NC(=O)[C@@H](N)Cc1ccc(O)cc1)C(=O)N[C@@H](Cc1ccccc1)C(=O)N[C@H](C(=O)N[C@@H](CC(=O)O)C(=O)N[C@@H](CO)C(=O)N[C@@H](Cc1ccc(O)cc1)C(=O)N[C@@H](CCCNC(=N)N)C(=O)N[C@@H](CCCCN)C(=O)N[C@H](C(=O)N[C@@H](CC(C)C)C(=O)N[C@@H](C)C(=O)N[C@@H](CCC(N)=O)C(=O)N[C@@H](CC(C)C)C(=O)N[C@@H](CCCCN)C(=O)N[C@@H](C)C(=O)N[C@@H](CCCNC(=N)N)C(=O)N[C@@H](CCC(N)=O)C(=O)N[C@@H](CC(=O)O)C(=O)N[C@@H](CC(C)C)C(=O)N[C@@H](CC(C)C)C(=O)N[C@@H](C)C(=O)N[C@@H](CCCNC(=N)N)C(=O)N[C@@H](C)C(=O)N[C@@H](C)C(=O)N[C@@H](CCCNC(=N)N)C(=O)N[C@@H](C)C(=O)N[C@@H](C)C(=O)N[C@@H](CCCNC(=N)N)C(N)=O)C(C)C)[C@@H](C)O [SEQ ID NO: 30, Y-a-DAIFTDSYRKVLAQLKARQDLLARAARAAR-NH2] (HELM PEPTIDE1{Y.[dA].D.A.I.F.T.D.S.Y.R.K.V.L.A.Q.L.K.A.R.Q.D.L.L.A.R.A.A.R.A.A.R.[am]}$$$$V2.0)	12282	664.1 ng/mL	493.3 ng/mL
CC/C=C/CC(=O)N[C@@H](Cc1ccc(O)cc1)C(=O)N[C@@H](C)C(=O)N[C@@H](CC(=O)O)C(=O)N[C@@H](C)C(=O)N[C@H](C(=O)N[C@@H](Cc1ccccc1)C(=O)N[C@H](C(=O)N[C@@H](CC(=O)O)C(=O)N[C@@H](CO)C(=O)N[C@@H](Cc1ccc(O)cc1)C(=O)N[C@@H](CCCNC(=N)N)C(=O)N[C@@H](CCCCN)C(=O)N[C@H](C(=O)N[C@@H](CC(C)C)C(=O)N[C@@H](C)C(=O)N[C@@H](CCC(N)=O)C(=O)N[C@@H](CC(C)C)C(=O)N[C@@H](CCCCN)C(=O)N[C@@H](C)C(=O)N[C@@H](CCCNC(=N)N)C(=O)N[C@@H](CCC(N)=O)C(=O)N[C@@H](CC(=O)O)C(=O)N[C@H](C(=O)N[C@@H](CC(C)C)C(=O)N[C@@H](C)C(=O)N[C@@H](CCCNC(=N)N)C(=O)N[C@@H](C)C(=O)N[C@@H](C)C(=O)N[C@@H](CCCNC(=N)N)C(=O)N[C@@H](C)C(=O)N[C@@H](C)C(=O)N[C@@H](CCCNC(=N)N)C(N)=O)[C@@H](C)CC)C(C)C)[C@@H](C)O)[C@@H](C)CC [SEQ ID NO: 31, Trans-3-hexenoyl-YADAIFTDSYRKVLAQLKARQDILARAARAAR-NH2] (HELM PEPTIDE1{[CC/C=C/CC(=O)[*:2]].Y.A.D.A.I.F.T.D.S.Y.R.K.V.L.A.Q.L.K.A.R.Q.D.I.L.A.R.A.A.R.A.A.R.[am]}$$$$V2.0)	9093	459.9 ng/mL	563.6 ng/mL
